Reference: PMC9302014, “PEGylation improves the therapeutic potential of dimerized translationally controlled tumor protein blocking peptide in ovalbumin-induced mouse model of airway inflammation” (Drug Delivery, 2022)

Test system: OVA-induced allergic airway inflammation
Experiment: Mouse model of OVA-induced allergic airway inflammation
Type: in vivo
Conditions: single 1 mg/kg intraperitoneal on day 32, n = 10-12
Protocol: Sixty female BALB/c mice, 6–7 weeks of age, were randomly divided into five groups (12 mice per group) and intraperitoneally sensitized on days 1 and 14 with 50 μg OVA emulsified in 2 mg aluminum hydroxide in a total volume of 200 μl. The control group of naïve mice received the same volume of PBS for the duration of the experiment. Two weeks after the second sensitization, the animals were challenged with 200 μg of OVA through intranasal administration under light anesthesia on days 28, 30, 32, and 34. […]. On day 35, the mice were sacrificed and BALF, lung tissue, and serum were collected for further analysis.
Mice were anesthetized, and the trachea was excised, and cannulated with a polyethylene tube. The lungs were lavaged with 0.8 ml of PBS four times, and 0.6 ml of BALF was obtained. The collected lavage fluid was cooled on ice and centrifuged at 1,000 rpm for 10 min at 4 °C. The supernatant was used for ELISA assays. The pellets were resuspended in 0.1 ml PBS, and the total inflammatory cell numbers were quantified using a Hemavet (Drew Scientific Inc., Oxford, CT).
After lavage, the right lung lobe was isolated and stored at −80 °C until required. The lung tissue was homogenized in 50 mM Tris-HCl buffer (pH 7.4) containing 150 mM NaCl, 1 mM EDTA, 0.25% deoxycholate, and a protease inhibitor (Sigma) using a tissuelyser II (Qiagen). The lung homogenates were centrifuged at 10,000 × g for 10 min, and the supernatants were collected and used for ELISA assay.
The left lung lobe was fixed in 4% formaldehyde, embedded in paraffin, and sectioned at a thickness of 4 μm. The sections were stained with hematoxylin and eosin (H&E) to detect infiltration of inflammatory cells and with periodic acid-Schiff (PAS) staining for the analysis of goblet cells hyperplasia/mucus production. The H&E stained sections were scored for the presence of inflammatory cells using the following scale: (0) = absent, (1) = rare, (2) = mild, (3) = moderate, (4) = severe. Scoring was performed by 6 observers in a blinded manner. Also, the area of H&E stained cells was quantified in the selected field, and the area of PAS-positive cells per bronchiole was expressed as the % of the total epithelial area using ImageJ software (National Institute of Health, Bethesda, MD).
Statistical analysis was performed using GRAPHPAD^TM PRISM version 8.0 for Windows (GraphPad Software, San Diego, CA). Statistical significance was determined using Student’s two-tailed unpaired t-test for comparisons between two groups. For more than 3 groups, a one-way analysis of variance (ANOVA) was followed by Tukey’s test. Error bars were expressed as the mean ± the standard error of the mean (SEM) of 10 to 12 mice per group. Significant differences between means were defined as p < 0.05.

C[C@@H]1C[C@H]2[C@@H]3CCC4=CC(=O)C=C[C@]4(C)[C@@]3(F)[C@@H](O)C[C@]2(C)[C@@]1(O)C(=O)CO [Dex, dexamethasone]
levels of IL-4, IL-5, and IL-13 in lung homogenates increased by OVA challenge (ELISA): suppressed | number of lymphocytes in BALF compared to the OVA group: did not significantly suppress | number of monocytes in BALF compared to the OVA group: did not significantly suppress | number of total cells (total leukocytes) in BALF compared to the OVA-challenged group: no difference
